# From patent US10052306B2 (LUC THERAPEUTICS, INC., priority 2013, dated 2018)
# Target: NR1/NR2B (Homo sapiens (Human), UniProt Q05586+Q13224)
# Test: Cell assay: FDSS Ca2+ influx inhibition in HEK293 cells expressing NR1/NR2B;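 further: Fluo-8 Ca2+ signal read on Hamamatsu FDSS 6000 after glutamate, glycine and Ca2+ challenge following 10 min compound preincubation, end/baseline fluorescence ratio compared with MK801 control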
# [1] = NR2B NAM IC50, HEK293 cells expressing NR1/NR2B, Ca2+ influx
# [2] = Binned Activity, HEK293 cells expressing NR1/NR2B, Ca2+ influx, binned NR2B NAM IC50
# Procedure: Cell Culture and plating: HEK293 cells expressing NR1/NR2B (Chantest, Cleveland, Ohio) were grown to 70-80% confluency as an adherent monolayer in standard tissue culture flasks at 37° C., 5% CO2 per supplier's instructions. NR2B expression was induced by incubation with 0.3-0.4 μg/ml tetracycline in the presence of 4 mM ARL-15896 for 18-24 hours under the same growth conditions, then transferred to 30° C. for another 3-5 hours.
# After induction, cell culture medium was removed and cells were rinsed once with Ca^2+ and Mg^2+-free Dulbecco's phosphate buffered saline. Cells were then removed from the flask using TrypLE™ Express (Life Technologies) according to the manufacturer's instructions and collected to 50 ml centrifuge tubes. Following two washes in Ca^2+/Mg^2+-free HBSS with 20 mM HEPES (HHnoCa), cells were counted and viability assessed using trypan blue. To load cells with Ca^2+-sensitive dye, they were resuspended in fluo-8 plus Component B (AAT Bioquest Products) diluted in HHnoCa and incubated 15 minutes at 37° C., followed by 30 minutes at room temp (in dark). Cells were then washed and resuspended in HHnoCa to remove extracellular dye and plated in 384-well plates (Falcon, uncoated) at 20,000-30,000 cells/well in a final volume of 25 μl/well.
# FDSS Assay: To each well of the plate, 10 μL test compound, control (MK801) or HHnoCa buffer was added to a final concentration of 10 μM with a final concentration of DMSO of 0.1%. Following 10 minutes pre-incubation in the dark, plates are loaded onto the Hamamatsu FDSS 6000. After collecting baseline fluorescence images, 3 μM glutamate, 3 glycine, and 1 mM Ca^2+ in HHnoCa buffer is added to each well, and Ca^2+ is recorded for 3 minutes. Data were processed by computing ratio of fluorescence at the end of data collection to baseline fluorescence to assess degree of Ca′ influx inhibition relative to that observed in MK801.
# NR1/NR2B, sequence (Q13224 27-1484, other chains not shown): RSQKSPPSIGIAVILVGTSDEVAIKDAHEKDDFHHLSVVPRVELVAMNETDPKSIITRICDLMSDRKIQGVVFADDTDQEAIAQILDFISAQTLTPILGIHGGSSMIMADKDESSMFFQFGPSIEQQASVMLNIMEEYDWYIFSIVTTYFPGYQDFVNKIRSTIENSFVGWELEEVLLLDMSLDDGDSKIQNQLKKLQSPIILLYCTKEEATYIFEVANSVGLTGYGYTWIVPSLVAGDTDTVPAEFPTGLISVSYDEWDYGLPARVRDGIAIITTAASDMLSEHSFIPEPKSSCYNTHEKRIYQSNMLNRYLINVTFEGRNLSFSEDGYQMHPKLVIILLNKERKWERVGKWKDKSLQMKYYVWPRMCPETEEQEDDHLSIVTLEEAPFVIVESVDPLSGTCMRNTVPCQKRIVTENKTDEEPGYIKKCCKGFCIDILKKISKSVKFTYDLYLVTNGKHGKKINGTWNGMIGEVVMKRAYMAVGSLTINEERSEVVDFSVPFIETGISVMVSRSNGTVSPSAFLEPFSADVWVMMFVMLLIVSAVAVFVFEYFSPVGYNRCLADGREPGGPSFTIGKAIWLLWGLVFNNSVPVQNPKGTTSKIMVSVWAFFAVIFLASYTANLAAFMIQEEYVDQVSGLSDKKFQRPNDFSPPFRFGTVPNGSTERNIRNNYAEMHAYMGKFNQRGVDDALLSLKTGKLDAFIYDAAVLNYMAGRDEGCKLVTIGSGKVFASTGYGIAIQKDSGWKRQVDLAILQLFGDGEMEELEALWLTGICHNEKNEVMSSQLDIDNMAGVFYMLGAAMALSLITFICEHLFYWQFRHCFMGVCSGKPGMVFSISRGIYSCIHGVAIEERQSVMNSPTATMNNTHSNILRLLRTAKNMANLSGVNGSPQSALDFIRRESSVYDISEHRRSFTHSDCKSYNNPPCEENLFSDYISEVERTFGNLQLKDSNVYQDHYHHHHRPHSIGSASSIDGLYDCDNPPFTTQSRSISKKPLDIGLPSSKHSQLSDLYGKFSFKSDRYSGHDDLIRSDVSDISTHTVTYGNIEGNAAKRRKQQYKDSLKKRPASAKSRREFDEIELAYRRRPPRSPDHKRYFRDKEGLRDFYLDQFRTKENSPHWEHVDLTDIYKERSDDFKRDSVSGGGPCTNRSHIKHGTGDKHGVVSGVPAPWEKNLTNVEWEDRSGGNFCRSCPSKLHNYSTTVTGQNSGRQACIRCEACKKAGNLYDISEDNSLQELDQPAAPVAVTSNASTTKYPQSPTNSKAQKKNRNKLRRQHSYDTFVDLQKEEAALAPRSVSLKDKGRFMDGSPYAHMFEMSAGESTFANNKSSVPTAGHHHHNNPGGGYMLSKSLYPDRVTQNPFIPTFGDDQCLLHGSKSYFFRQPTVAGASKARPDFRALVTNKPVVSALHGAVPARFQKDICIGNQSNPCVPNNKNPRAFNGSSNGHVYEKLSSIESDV
IC50 [1] [µM],IC50 [2] [µM],Compound,IC50 (Binned Activity) [µM],IC50 (NR2B NAM IC50) [µM]
0.0474,–,"COc1ccc(C[C@]2(O)C[C@H]3CN(CC(O)c4ccc(O)cc4)C[C@H]3C2)cc1 (mixture of isomers) [Example 189, rac-(3aR,5r,6aS)-2-(2-hydroxy-2-(4-hydroxyphenyl)ethyl)-5-(4-methoxy-benzyl)octahydro-cyclopenta[c]pyrrol-5-ol]",–,–
≥ 10,> 10,"OC(CN1C[C@@H]2C[C@@](O)(Cc3ccccc3)C[C@@H]2C1)c1cnc(OCc2ccccc2)cn1 (mixture of isomers) [Example 163, rac-(3aR,5r,6aS)-5-benzyl-2-(2-(5-(benzyloxy)pyrazin-2-yl)-2-hydroxyethyl)octahydro-cyclopenta[c]pyrrol-5-ol]",–,–
3.15,–,"Oc1ccc(C(O)CN2C[C@@H]3C[C@@](O)(Cc4ccncc4)C[C@@H]3C2)cc1 (mixture of isomers) [Example 227, rac-(3aR,5r,6aS)-2-(2-hydroxy-2-(4-hydroxyphenyl)ethyl)-5-(pyridin-4-ylmethyl)octahydrocyclo-penta[c]pyrrol-5-ol]",–,–
≥ 10,> 10,"COc1cccc([C@]2(O)C[C@H]3CN(CC(O)c4cccc(C(F)(F)F)c4)C[C@H]3C2)c1 (mixture of isomers) [Example 73, rac-2-{2-hydroxy-2-[3-(trifluoromethyl)phenyl]ethyl}-5-(3-methoxyphenyl)-octahydrocyclopenta[c] pyrrol-5-ol]",–,–
≥ 10,> 10,"COc1cccc(C(O)CN2C[C@H]3C[C@@H](c4ccccc4)C[C@H]3C2)c1 (mixture of isomers) [Example 117, rac-1-(3-methoxyphenyl)-2-{5-phenyl-octahydrocyclopenta[c]pyrrol-2-yl}ethan-1-ol]",–,–
≥ 10,> 10,"CC(C(=O)c1ccc(O)cc1)N1C[C@@H]2C[C@@](O)(c3ccc(C(C)(C)C)cc3)C[C@@H]2C1 (mixture of isomers) [Example 93, rac-2-[5-(4-tert-butylphenyl)-5-hydroxy-octahydrocyclopenta[c]pyrrol-2-yl]-1-(4-hydroxyphenyl)propan-1-one]",–,–
≥ 10,> 10,COc1cccc([C@]2(O)C[C@H]3CN(C(=O)Nc4ccc(C)cc4C)C[C@H]3C2)c1 [Example 49],–,–
≥ 10,> 10,O=C(Nc1cccc(Cl)c1)N1C[C@@H]2C[C@@](O)(c3ccc(F)cc3)C[C@@H]2C1 [Example 39],–,–
≥ 10,> 10,O=C(Nc1cccc(C(F)(F)F)c1)N1C[C@@H]2C[C@@](O)(c3ccc(F)cc3)C[C@@H]2C1 [Example 38],–,–
≥ 10,> 10,"OC(CN1C[C@@H]2C[C@@](O)(c3ccccc3)C[C@@H]2C1)c1cccc(F)c1 (mixture of isomers) [Example 64, rac-2-[2-(3-fluorophenyl)-2-hydroxyethyl]-5-phenyl-octahydrocyclopenta[c] pyrrol-5-ol]",–,–
0.41,–,"Oc1ccc(C(O)CN2C[C@@H]3C[C@@](O)(CC4CCCCC4)C[C@@H]3C2)cc1 (mixture of isomers) [Example 209, rac-(3aR,5R,6aS)-5-(cyclohexylmethyl)-2-[2-hydroxy-2-(4-hydroxyphenyl)ethyl]-octahydrocyclopenta[c] pyrrol-5-ol]",–,–
≥ 10,> 10,"OC(CN1C[C@@H]2C[C@@](O)(c3ccc(F)cc3)C[C@@H]2C1)c1ccc(Cl)cc1Cl (mixture of isomers) [Example 76, rac-2-[2-(2,4-dichlorophenyl)-2-hydroxyethyl]-5-(4-fluorophenyl)-octahydrocyclopenta[c] pyrrol-5-ol]",–,–
≥ 10,> 10,"CC(C(O)c1ccc(O)cc1)N1C[C@@H]2C[C@@](O)(c3ccccc3)C[C@@H]2C1 (mixture of isomers) [Example 91, rac-2-(1-hydroxy-1-(4-hydroxyphenyl)propan-2-yl)-5-phenyloctahydrocyclo-penta[c]pyrrol-5-ol]",–,–
–,> 10,"O=C(Nc1ccc(F)cc1)N1C[C@@H]2C[C@@](O)(c3ccc(F)cc3)C[C@@H]2C1 [Example 35, N,5-bis(4-fluorophenyl)-5-hydroxy-octahydrocyclopenta[c] pyrrole-2-carboxamide]",–,–
0.38,–,"Oc1ccc(C(O)CN2C[C@H]3CN(Cc4ccccc4)C[C@H]3C2)nc1 (mixture of isomers) [Example 329, rac-6-(2-(5-benzylhexahydropyrrolo [3,4-c]pyrrol-2(1H)-yl)-1-hydroxyethyl) pyridin-3-ol]",–,–
–,–,"CC(C(=O)c1ccc(O)cc1)N1C[C@H]2CC(CCc3ccccc3)C[C@H]2C1 (mixture of isomers) [Example 322, rac-1-(4-hydroxy-phenyl)2-[(5R)-5-(2-phenylethyl)-octahydrocyclopenta[c]pyrrol-2-yl]propan-1-one]",0.1 to 1,0.533
≥ 10,> 10,COc1cccc([C@]2(O)C[C@H]3CN(C(=O)Nc4cccc(C(F)(F)F)c4)C[C@H]3C2)c1 [Example 16],–,–
≥ 10,> 10,"Oc1ccc(C(O)CN2C[C@@H]3C[C@@](O)(CCc4ccccc4)C[C@@H]3C2)cc1 (mixture of isomers) [Example 321, rac-2-(2-hydroxy-2-(4-hydroxyphenyl)ethyl)-5-phenethyloctahydro-cyclopenta[c] pyrrol-5-ol]",–,–
0.0168,< 0.1,"Oc1ccc(C(O)CN2C[C@H]3C[C@@H](Cc4ccccc4)C[C@H]3C2)cc1 (mixture of isomers) [Example 304, rac-4-{2-[(3aR,5S,6aS)-5-benzyl-octahydrocyclopenta[c]pyrrol-2-yl]-1-hydroxyethyl}phenol]",–,–
–,> 10,"CC(C)(O)c1ccc(C(=O)CN2C[C@@H]3C[C@@](O)(c4ccccc4)C[C@@H]3C2)cc1 [Example 68, 2-(5-hydroxy-5-phenylhexahydrocyclo-penta[c]pyrrol-2(1H)-yl)-2-(4-(2-hydroxypropan-2-yl)phenyl)ethanone]",–,–
≥ 10,> 10,"CC(=O)Nc1ccc(C(O)CN2C[C@@H]3C[C@@](O)(Cc4ccccc4)C[C@@H]3C2)cn1 (mixture of isomers) [Example 283, rac-N-(5-(2-((3aR,5r,6aS)-5-benzyl-5-hydroxyhexahydrocyclo-penta[c]pyrrol-2(1H)-yl)-1-hydroxyethyl)pyridin-2-yl)acetamide]",–,–
–,< 0.1,Cc1ccc(C[C@]2(O)C[C@H]3CN(CC(=O)c4ccc(O)cc4)C[C@H]3C2)cc1 [Example 179],–,–
0.0115,< 0.1,"Oc1ccc(C(O)CN2C[C@@H]3C[C@@](O)(Cc4ccc(Cl)cc4)C[C@@H]3C2)nc1 (mixture of isomers) [Example 223, rac-(3aR,5r,6aS)-5-(4-chlorobenzyl)-2-(2-hydroxy-2-(5-hydroxypyridin-2-yl)ethyl)octahydrocyclo-penta[c]pyrrol-5-ol]",–,–

Compound,IC50 [1] [µM],IC50 [2] [µM],IC50 (Binned Activity) [µM],IC50 (NR2B NAM IC50) [µM]
COc1cccc(NC(=O)N2C[C@@H]3C[C@@](O)(c4ccccc4C)C[C@@H]3C2)c1,≥ 10,> 10,–,–
"[2H]C(O)(CN1C[C@@H]2C[C@@](O)(Cc3ccccc3)C[C@@H]2C1)c1ccc(O)cc1 (mixture of isomers) [Example 281, deuterated rac-(3aR,6aS)-5-benzyl-2-((S)-2-hydroxy-2-(4-hydroxyphenyl)ethyl) octahydrocyclopenta [c]pyrrol-5-ol]",0.0174,< 0.1,–,–
"CC(C(=O)c1ccc(O)cc1)N1C[C@@H]2C[C@](F)(Cc3ccccc3)C[C@@H]2C1 (mixture of isomers) [Example 317, rac-2-((3aR,5s,6aS)-5-benzyl-5-fluoro-hexahydrocyclopen-ta[c]pyrrol-2(1H)-yl)-1-(4-hydroxyphenyl)propan-1-one]",0.284,–,–,–
COc1cccc(NC(=O)N2C[C@@H]3C[C@@](O)(c4ccccc4)C[C@@H]3C2)c1 [Example 7],≥ 10,> 10,–,–
